Laboratory results: patent US20220409573A1, “Hippocampus Regeneration And Memory Recovery” (INNOBIOSCIENCE, LLC, priority 2021, published 2022)

Legend:
[1] = system: APPswe/PS-1 double transgenic mice; test: Memory flexibility test (modified Morris Water Maze); type: in vivo; conditions: 7-month-old APPswe/PS-1 mice, 2.0 mg/kg IP three times per week, four weeks, vs Tg control
[2] = system: APPswe/PS-1 double transgenic mice; test: Classical Morris Water Maze test; type: in vivo; conditions: 12 month-old APPswe/PS-1 mice, 2.0 mg/kg IP three times per week, four weeks, vs Tg control
[3] = system: synaptic proteins in hippocampus and cortex of APPswe/PS-1 mice; test: Immunoblotting of synaptic proteins in treated APPswe/PS-1 mice; type: in vivo
[4] = system: Aβ aggregates in brain of APPswe/PS-1 mice; test: Thioflavine-S staining of amyloid plaques in treated APPswe/PS-1 mice; type: in vivo
[5] = system: Aβ oligomers in the hippocampus of APPswe/PS-1 mice; test: Slot blot of Aβ oligomers with A11 antibody; type: in vivo
[6] = system: tau phosphorylation in the hippocampus of APPswe/PS-1 mice; test: Tau phosphorylation immunoblot (PHF-1, AT8) in treated APPswe/PS-1 mice; type: in vivo; conditions: hippocampus of 6 month-old APPswe/PS-1 mice, vs untreated
[7] = system: AT8-positive neurons in APPswe/PS-1 mice; test: AT8 immunohistochemistry in treated APPswe/PS-1 mice; type: in vivo
[8] = system: Wnt/β-catenin pathway in hippocampal slices; test: β-catenin, GSK-3β and Dvl-3 western blot in hippocampal slices of wild-type mice; type: cell-based
Protocol: Slice preparation. […] Transverse slices (250-300 μm) from the dorsal hippocampus were cut under oxygen-saturated cold artificial cerebrospinal fluid using a Vibroslice microtome (VSL, World Precision Instruments, Inc WPI, Sarasota, Fla.). After obtained, slices were incubated in ACSF for at least than one hour at room temperature, in order to stabilize activity.
Immunoblotting. […] Briefly, tissues were homogenized in RIPA buffer (10 mM Tris-Cl, pH 7.4, EDTA 5 mM, 1% NP-40, 1% sodium deoxycholate, and 1% SDS) supplemented with a protease inhibitor mixture (1 mM PMSF, 2 μg/mL aprotinin, 1 μg/mL pepstatin and 10 μg/mL benzamidine) and phosphatase inhibitors (25 mMNaF, 100 mM Na3VO4, 1 mM EDTA and 30 μM Na4P207) using a Potter homogenizator and then passed sequentially through different caliber syringes. […] Protein concentration was determined using the BCA Protein Assay Kit (Pierce). […] The reactions were followed by incubation with anti-mouse, anti-goat or anti-rabbit IgG peroxidase conjugated (Pierce, Rockford, Ill.) and developed using an ECL kit (Western Lightning Plus ECL, PerkinElmer).

HEK293T cells = test: TOP/FOP flash luciferase reporter assay; type: cell-based
Protocol: Luciferase Assay. 150,000 HEK293T cells were seeded in triplicate per condition and kept for 24 hours at 37° C. with 5% CO2. The cultures were transfected with TOPflash or FOPflash (400 ng), which are firefly-luciferase reporter DNA constructs (Milipore), using LipofectAMINE 2000 (Invitrogen). To control for transfection pRL-TK (10 ng) was included in all transfections. […] Values were normalized by the renilla value from the same well. To statistically compare treatments ANOVA was used.

Wnt target genes = test: PCR array of Wnt target genes in hippocampal neurons; type: cell-based, rat
Protocol: Primary culture of rat hippocampal neurons. […] PCR-ARRAY. RNA from hippocampal neurons was extracted using Trizol. Quantification and purity of RNA preparations were checked by absorbance using Nanodrop ND-2000. Only preparations with a 260/280 nm ratio≥1.8, a 260/230 nm ratio ≥1,7 and no sign of RNA degradations, verified by agarose gel electrophoresis with Gel Red TM were used. Genomic DNA was degraded. Using RT2First-Strand cDNA Synthesis kit (SuperArray), 1 μg total RNA was reverse transcribed and then real-time PCR was performed by adding cDNA directly to PCR Master Mix, containing SYBR Green and ROX. The mixtures were then aliquoted into a 96-well PCR array plates, which profiles the expression of 84 Wnt target genes from rat. The PCR was run on ABI StepOnePlus, with 1 cycle of 10 min at 95° C. followed by 40 cycles of 15 s at 95° C. and 1 min at 60° C.
Treatment of neuronal cultures. Primary hippocampal cultures of neurons 14 DIV were washed twice in neurobasal medium and maintained for 1 hour.

[9] = Side effects in treated animals; conditions: in vivo
[10] = young APPswe/PS-1 mice, vs controls
[11] = 9 h treatment, of the 86 genes analyzed

C=C1CC[C@@H]2C(C)(CO)[C@H](O)CC[C@@]2(C)C1C/C=C1/C(=O)OC[C@H]1O (stereo in doubt) [ANDRO, 3-(2-(Decahydro-6-hydroxy-5-(hydroxymethyl)-5,8a-dimethyl-2-methylenenaphthyl)ethylidene)dihydro-4-hydroxyfuran-2(3H)-one]
number of trial to criterion of learning [1]: reduction in the number of trial to criterion of learning | escape latency [2]: significantly lower escape latency values | PSD-95 and GluA2 levels ([3]; mature (12-month-old) Tg mice): increase of PSD-95 and GluA2 levels | total levels of pre-synaptic proteins SYP and VAMP ([3]; young APPswe/PS-1 mice): unaltered | levels of post-synaptic proteins (Shank, GluN2B, GluA2, PSD-95) ([3]; young APPswe/PS-1 mice, hippocampus and cortex): significantly recovers the post-synaptic proteins | plaque size distribution (cumulative frequency) ([4]; 7 month-old APPswe/PS-1 mice): shift in their distribution toward smaller plaque size | amyloid plaques stained with Th-S ([4]; 7 month-old APPswe/PS-1 mice, cortex and hippocampus, vs untreated): reduction of amyloid plaques | amyloid deposit levels (amyloid burden area) ([4]; hippocampus or cortex, FIG. 3F (12 month-old mice per legend)): no change in amyloid deposit levels | immature plaques (type 1) [4, 10]: increase significantly | type 2a and 2c plaques in the total brain [4, 10]: no significant differences | type 2b plaques [4, 10]: significantly decreased | level of Aβ oligomers (A11 slot-blot) ([5]; 7 month-old APPswe/PS-1 mice): did not show significant changes | levels of Aβ-oligomers (A11 slot blot) ([5]; FIG. 3G (old APPswe/PS-1 mice per legend)): did not show significant changes | PHF-1- and AT8-positive tau levels [6]: reduction in PHF-1- and AT8-positive tau levels | number of AT8-positive neurons next to amyloid deposits ([7]; 6 month-old APPswe/PS-1 mice, circular area surrounding plaques): clear decrease in the number of AT8-positive neurons | total AT8-positive cells outside the circular area around the plaques ([7]; hippocampus): decrease in the number of these cells | time at which total levels of β-catenin increased ([8]; 5 μM ANDRO, Wnt3a conditioned medium or 10 nM 6-BIO, up to 1 h): 15 min | rate of increase of GSK3β Ser-9 and decrease of Tyr-216 phosphorylation ([8]; compared to Wnt-3a treatment): faster | mobility shift (phosphorylation) of Dvl-3 ([8]; hippocampal slices, 1 h): does not induce a mobility shift of Dvl-3 | TOPflash reporter activity (HEK293T cells; ANDRO 10 μM or 6-BIO 10 nM, 24 h): significant increase | increase of luciferase reporter over control (HEK293T cells; TOPflash, HEK293T): 4 fold | Cdh-1 gene expression (Wnt target genes): differential expression | number of Wnt target genes specifically modulated (Wnt target genes; [11]): 3 genes | number of changed Wnt target genes shared by ANDRO and 6-BIO (Wnt target genes; [11]): 4 genes | Ets2 gene expression (Wnt target genes; after Bonferroni correction): down-regulation of Ets2 gene | side effects in animals [9]: seems not to cause side effects in animals
